According to paper PMC10353187, “Discovery of a new potent oxindole multi-kinase inhibitor among a series of designed 3-alkenyl-oxindoles with ancillary carbonic anhydrase inhibitory activity as antiproliferative agents” (BMC Chemistry, 2023):

Experiments:
Assay in all cases: Z'-LYTE kinase inhibition assay (SelectScreen)
Format in all cases: biochemical
FGFR 1 = biological target: T1, FGFR 1 (Homo sapiens, UniProt P11362)
T1 construct: purchased Thermo Fischer Scientific (SelectScreen service)
Method: (§1) To test the potential kinase inhibitory activity of compound 15c, initial single dose testing was performed at 10 μM on a panel of kinases and their inhibition % were determined.
(§2) […]. Additional file 1; S3: In vitro biological activity).
(§3) The FGFR, VEGFR-2 and RET tyrosine kinase assays were carried out at Thermo Fischer Scientific, USA (www.thermofischer.com/selectscreen). (For further details see Additional file 1; S3: In vitro biological activity).
(§4) The FGFR, VEGFR-2 and RET tyrosine kinase assays were performed at Thermo Fischer Scientific, USA (www.thermofischer.com/selectscreen). The assay was performed to evaluate the inhibitory activity of the designed compound applying the Z'-LYTE biochemical assay employing a fluorescence-based, coupled-enzyme format based on the differential sensitivity of phosphorylate and non-phosphorylate peptides to the proteolytic cleavage. The peptide substrate is characterized with two fluorophores, one at each end, that make up a FRET pair ^9.
(§5) The Z´-LYTE biochemical assay employs a fluorescence-based, coupled-enzyme format and is based on the differential sensitivity of phosphorylated and non-phosphorylated peptides to proteolytic cleavage. The peptide substrate is labeled with two fluorophores—one at each end—that make up a FRET pair. In the primary reaction, the kinase transfers the gamma-phosphate of ATP to a single tyrosine, serine or threonine residue in a synthetic FRET-peptide. In the secondary reaction, a site-specific protease recognizes and cleaves non-phosphorylated FRET-peptides. Phosphorylation of FRET-peptides suppresses cleavage by the Development Reagent. Cleavage disrupts FRET between the donor (i.e., coumarin) and acceptor (i.e., fluorescein) fluorophores on the FRET-peptide, whereas uncleaved, phosphorylated FRET-peptides maintain FRET. A ratiometric method, which calculates the ratio (the Emission Ratio) of donor emission to acceptor emission after excitation of the donor fluorophore at 400 nm, is used to quantitate reaction progress, as shown in the equation below. A significant benefit of this ratiometric method for quantitating reaction progress is the elimination of wellto-well variations in FRET-peptide concentration and signal intensities. […]. Both cleaved and uncleaved FRET-peptides contribute to the fluorescence signals and therefore to the Emission Ratio. The extent of phosphorylation of the FRET-peptide can be calculated from the Emission Ratio. The Emission Ratio will remain low if the FRET-peptide is phosphorylated (i.e., no kinase inhibition) and will be high if the FRET-peptide is non-phosphorylated (i.e., kinase inhibition).
(§6) Test Compounds the Test Compounds are screened in 1% DMSO (final) in the well. For 10 point titrations, 3-fold serial dilutions are conducted from the starting concentration of the customer’s choosing. Peptide/Kinase Mixtures All Peptide/Kinase Mixtures are diluted to a 2X working concentration in the appropriate Kinase Buffer (see section Kinase Specific Assay Conditions for a complete description). ATP Solution All ATP Solutions are diluted to a 4X working concentration in Kinase Buffer (50 mM HEPES pH 7.5, 0.01% BRIJ-35, 10 mM MgCl2, 1 mM EGTA). ATP Km apparent is previously determined using a Z´-LYTE assay.

RET = biological target: T2, RET (Homo sapiens, UniProt P07949)
T2 construct: purchased Thermo Fischer Scientific (SelectScreen service)
Method: as §1, §2, §3, §4, §5, §6

VEGFR 2(KDR) = biological target: T3, VEGFR 2(KDR) (Homo sapiens, UniProt P35968)
T3 construct: purchased Thermo Fischer Scientific (SelectScreen service)
Method: as §1, §2, §3, §4, §5, §6

BRAF = biological target: T4, BRAF (Homo sapiens, UniProt P15056)
T4 construct: purchased Thermo Fischer Scientific (SelectScreen service)
Method: as §1, §3, §4, §5, §6

Kit = biological target: T5, Kit (Homo sapiens, UniProt P10721)
T5 construct: purchased Thermo Fischer Scientific (SelectScreen service)
Method: as §1, §3, §4, §5, §6

PDGFRA (PDGFR alpha) = biological target: T6, PDGFRA (PDGFR alpha) (Homo sapiens, UniProt P16234)
T6 construct: purchased Thermo Fischer Scientific (SelectScreen service)
Method: as §1, §3, §4, §5, §6

VEGFR 1(FLT1) = biological target: T7, VEGFR 1(FLT1) (Homo sapiens, UniProt P17948)
T7 construct: purchased Thermo Fischer Scientific (SelectScreen service)
Method: as §1, §3, §4, §5, §6

c-Met = biological target: T8, c-Met (Homo sapiens, UniProt P08581)
T8 construct: purchased Thermo Fischer Scientific (SelectScreen service)
Method: as §1, §3, §4, §5, §6

[1] = five concentrations 10 nM–100 μM

T1 sequence (P11362 22-822): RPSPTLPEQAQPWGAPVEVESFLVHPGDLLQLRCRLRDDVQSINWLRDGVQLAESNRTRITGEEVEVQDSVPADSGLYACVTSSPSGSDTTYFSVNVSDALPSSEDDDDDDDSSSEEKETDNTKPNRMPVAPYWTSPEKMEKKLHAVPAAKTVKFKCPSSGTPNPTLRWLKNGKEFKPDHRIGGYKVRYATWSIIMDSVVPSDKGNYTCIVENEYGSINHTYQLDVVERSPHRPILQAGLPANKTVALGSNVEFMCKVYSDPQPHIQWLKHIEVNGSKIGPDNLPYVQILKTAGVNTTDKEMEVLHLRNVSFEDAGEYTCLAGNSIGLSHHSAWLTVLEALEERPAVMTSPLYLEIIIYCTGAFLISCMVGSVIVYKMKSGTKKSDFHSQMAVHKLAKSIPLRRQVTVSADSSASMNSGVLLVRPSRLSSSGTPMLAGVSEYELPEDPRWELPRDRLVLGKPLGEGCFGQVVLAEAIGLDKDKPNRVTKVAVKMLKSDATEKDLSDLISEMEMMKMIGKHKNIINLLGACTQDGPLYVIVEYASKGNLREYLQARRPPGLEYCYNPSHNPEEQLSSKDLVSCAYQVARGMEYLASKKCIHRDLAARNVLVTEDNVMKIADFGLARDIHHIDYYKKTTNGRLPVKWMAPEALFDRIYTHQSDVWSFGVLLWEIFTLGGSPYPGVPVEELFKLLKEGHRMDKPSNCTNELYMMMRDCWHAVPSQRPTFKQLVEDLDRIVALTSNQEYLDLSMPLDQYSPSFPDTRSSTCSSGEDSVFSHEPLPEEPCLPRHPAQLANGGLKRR
T2 sequence (P07949 29-1114): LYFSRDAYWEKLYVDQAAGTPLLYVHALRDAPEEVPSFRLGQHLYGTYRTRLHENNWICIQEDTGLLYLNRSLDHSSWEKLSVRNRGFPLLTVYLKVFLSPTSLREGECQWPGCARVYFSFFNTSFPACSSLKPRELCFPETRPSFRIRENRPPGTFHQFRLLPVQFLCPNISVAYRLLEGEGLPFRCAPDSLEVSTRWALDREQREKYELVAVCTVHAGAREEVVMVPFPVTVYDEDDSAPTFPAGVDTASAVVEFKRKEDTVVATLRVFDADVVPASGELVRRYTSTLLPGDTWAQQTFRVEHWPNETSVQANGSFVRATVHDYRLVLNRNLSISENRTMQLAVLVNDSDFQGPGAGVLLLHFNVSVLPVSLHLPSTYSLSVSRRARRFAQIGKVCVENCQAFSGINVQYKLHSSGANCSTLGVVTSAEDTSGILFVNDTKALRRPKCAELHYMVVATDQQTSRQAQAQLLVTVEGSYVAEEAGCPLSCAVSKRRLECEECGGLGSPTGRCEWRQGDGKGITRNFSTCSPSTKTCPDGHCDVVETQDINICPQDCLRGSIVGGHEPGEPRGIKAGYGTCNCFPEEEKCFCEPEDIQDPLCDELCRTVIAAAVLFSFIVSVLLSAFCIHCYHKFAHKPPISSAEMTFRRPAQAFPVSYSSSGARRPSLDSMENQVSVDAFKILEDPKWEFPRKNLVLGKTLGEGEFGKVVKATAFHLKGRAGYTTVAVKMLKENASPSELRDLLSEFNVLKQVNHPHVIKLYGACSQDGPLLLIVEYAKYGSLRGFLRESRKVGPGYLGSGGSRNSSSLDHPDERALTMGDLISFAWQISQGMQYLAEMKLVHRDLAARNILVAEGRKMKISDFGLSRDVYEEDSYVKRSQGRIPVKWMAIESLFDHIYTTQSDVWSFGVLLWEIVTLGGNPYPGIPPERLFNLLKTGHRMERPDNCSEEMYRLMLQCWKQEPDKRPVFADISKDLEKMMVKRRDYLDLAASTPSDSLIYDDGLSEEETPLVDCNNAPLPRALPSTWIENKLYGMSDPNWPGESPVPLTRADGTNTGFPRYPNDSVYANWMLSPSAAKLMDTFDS
T3 sequence (P35968 20-1356): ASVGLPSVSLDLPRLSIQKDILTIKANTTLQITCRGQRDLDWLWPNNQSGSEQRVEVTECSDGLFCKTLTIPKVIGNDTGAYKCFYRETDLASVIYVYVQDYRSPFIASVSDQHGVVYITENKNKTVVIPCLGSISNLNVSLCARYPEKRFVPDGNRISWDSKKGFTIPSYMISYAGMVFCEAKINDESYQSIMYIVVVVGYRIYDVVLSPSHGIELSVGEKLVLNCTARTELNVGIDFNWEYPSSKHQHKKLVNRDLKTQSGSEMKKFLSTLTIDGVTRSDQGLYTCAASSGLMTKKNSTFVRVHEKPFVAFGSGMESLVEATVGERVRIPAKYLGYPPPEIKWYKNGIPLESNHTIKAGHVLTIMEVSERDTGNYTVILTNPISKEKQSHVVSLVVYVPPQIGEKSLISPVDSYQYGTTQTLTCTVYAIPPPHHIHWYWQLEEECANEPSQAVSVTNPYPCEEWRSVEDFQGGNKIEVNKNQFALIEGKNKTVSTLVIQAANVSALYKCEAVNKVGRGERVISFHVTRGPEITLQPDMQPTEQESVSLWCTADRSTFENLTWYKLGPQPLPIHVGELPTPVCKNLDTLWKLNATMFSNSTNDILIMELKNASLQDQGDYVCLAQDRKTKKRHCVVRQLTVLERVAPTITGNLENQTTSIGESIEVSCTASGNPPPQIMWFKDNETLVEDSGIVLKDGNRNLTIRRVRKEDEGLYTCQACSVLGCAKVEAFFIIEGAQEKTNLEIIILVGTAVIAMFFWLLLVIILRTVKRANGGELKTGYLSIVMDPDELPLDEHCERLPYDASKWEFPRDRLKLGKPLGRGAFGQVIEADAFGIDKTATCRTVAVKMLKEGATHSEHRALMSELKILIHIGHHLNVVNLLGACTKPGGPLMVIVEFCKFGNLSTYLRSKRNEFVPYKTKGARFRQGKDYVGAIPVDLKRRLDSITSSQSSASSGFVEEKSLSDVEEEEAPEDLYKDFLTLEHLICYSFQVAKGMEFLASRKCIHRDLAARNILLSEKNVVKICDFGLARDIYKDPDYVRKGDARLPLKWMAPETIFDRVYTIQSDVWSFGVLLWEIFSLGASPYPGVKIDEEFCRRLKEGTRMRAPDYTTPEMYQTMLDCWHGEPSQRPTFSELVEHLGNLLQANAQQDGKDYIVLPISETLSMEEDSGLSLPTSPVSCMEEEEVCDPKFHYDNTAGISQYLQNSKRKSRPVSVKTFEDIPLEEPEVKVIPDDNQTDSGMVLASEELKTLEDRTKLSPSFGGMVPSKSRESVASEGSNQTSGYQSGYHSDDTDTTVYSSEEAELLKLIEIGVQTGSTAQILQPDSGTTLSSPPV
T7 sequence (P17948 27-1338): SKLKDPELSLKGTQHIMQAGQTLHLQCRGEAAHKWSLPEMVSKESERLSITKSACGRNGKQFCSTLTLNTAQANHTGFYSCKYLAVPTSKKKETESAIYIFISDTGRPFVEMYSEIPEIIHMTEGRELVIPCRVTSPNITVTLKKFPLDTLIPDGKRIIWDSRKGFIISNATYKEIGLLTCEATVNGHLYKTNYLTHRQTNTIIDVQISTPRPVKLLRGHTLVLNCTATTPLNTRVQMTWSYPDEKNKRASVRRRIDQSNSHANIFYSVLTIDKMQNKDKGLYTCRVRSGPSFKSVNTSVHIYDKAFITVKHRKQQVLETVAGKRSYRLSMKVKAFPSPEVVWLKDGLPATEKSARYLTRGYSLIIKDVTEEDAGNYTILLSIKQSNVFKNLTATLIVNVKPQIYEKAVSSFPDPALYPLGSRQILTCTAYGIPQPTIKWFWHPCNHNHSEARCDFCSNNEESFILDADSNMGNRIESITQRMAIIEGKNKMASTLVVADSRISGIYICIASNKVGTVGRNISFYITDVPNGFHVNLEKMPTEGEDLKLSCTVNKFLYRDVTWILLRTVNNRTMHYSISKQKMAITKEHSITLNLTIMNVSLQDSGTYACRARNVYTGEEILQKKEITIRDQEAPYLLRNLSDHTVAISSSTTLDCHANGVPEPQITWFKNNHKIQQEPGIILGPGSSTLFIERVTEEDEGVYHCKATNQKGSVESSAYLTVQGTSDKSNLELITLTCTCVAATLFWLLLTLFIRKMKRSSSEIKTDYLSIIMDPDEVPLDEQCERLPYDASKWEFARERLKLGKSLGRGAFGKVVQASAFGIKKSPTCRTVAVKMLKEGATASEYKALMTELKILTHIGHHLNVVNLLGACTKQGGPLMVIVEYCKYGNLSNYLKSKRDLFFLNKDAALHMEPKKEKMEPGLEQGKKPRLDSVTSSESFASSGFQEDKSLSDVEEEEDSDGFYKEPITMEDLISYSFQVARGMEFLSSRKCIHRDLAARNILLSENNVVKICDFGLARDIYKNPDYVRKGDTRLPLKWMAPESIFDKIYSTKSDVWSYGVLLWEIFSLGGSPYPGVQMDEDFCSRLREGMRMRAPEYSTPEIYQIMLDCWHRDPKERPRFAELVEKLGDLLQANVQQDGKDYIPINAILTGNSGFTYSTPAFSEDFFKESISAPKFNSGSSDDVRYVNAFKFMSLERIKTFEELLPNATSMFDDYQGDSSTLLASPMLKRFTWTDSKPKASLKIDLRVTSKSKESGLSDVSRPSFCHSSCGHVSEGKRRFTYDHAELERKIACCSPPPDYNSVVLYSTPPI

Q: Which results are given for `O=C(Nc1ccc(NC=C2C(=O)Nc3ccccc32)cc1)Nc1nccs1` [Compound 15c, 1-{4-[((2-Oxoindolin-3-ylidene)methyl)amino]phenyl}-3-(thiazol-2-yl)urea]?
A: inhibition at 10 µM (FGFR 1; 10 uM): 74%; IC50 (FGFR 1; [1]): 1290 nM; inhibition at 10 µM (RET; 10 uM): 74%; IC50 (RET; [1]): 1190 nM; inhibition at 10 µM (VEGFR 2(KDR); 10 uM): 73%; IC50 (VEGFR 2(KDR); [1]): 117 nM; inhibition at 10 µM (BRAF): 69%; inhibition at 10 µM (Kit): 31%; inhibition at 10 µM (PDGFRA (PDGFR alpha)): 59%; inhibition at 10 µM (VEGFR 1(FLT1)): 40%; inhibition at 10 µM (c-Met): 62%
